Data published in patent US9850221B2, “Sulfated and unsulfated flavonoid oligomers as cancer therapeutics” (VIRGINIA COMMONWEALTH UNIVERSITY, priority 2013, dated 2017).
pIC50: −log10 of the molar value. Each block holds one compound with its values, some of them ahead of it.

What was measured:
[1] = test system: CSC markers mRNA; assay: Real-time PCR of CSC marker mRNA; type: cell-based, human; settings: 6 hours following treatment
Method: Real-Time PCR Analysis. Total RNA was isolated using the mirVana™ miRNA Isolation Kit (Life technologies, Grand Island, N.Y.). 1 μg total RNA was reverse transcribed using First-Strand cDNA Synthesis Kit using hexamer reverse primer (Affymetrix). Real time QPCR was performed using RT^2 SYBR® Green qPCR Master mix (Qiagen) in a 7500 fast real time machine (Applied Biosystem). Relative expressions of mRNA were calculated using ΔΔCT methods using GAPDH as a loading control.

[2] = test system: CSC markers CD44, CD133, EpCAM, LGR5, CXCR-4; assay: Western blot of CSC markers in HT-29 spheroids; type: cell-based, human; settings: 100 μM; for reduction of expression of CSC markers (CD44, CD133, EpCAM, LGR5, CXCR-4): HT-29 spheroids, Western blot densitometry vs vehicle
Method: (§1) Western Blotting Analysis. Western blot analysis was performed according to the standard protocol described in the literature. Briefly, HT-29 cells were plated in serum-free SCM in a low adhesion 6-well plate to obtain spheroids. Mature spheroids were treated on day 4 after plating, with vehicle or NSGMs for indicated time and cells were solubilized in lysis buffer (20 mM Na3PO4, 100 mM NaCl, 2 mM EDTA, 1% Nonidet P-40, 2.5 mM Na3VO4) containing protease (Roche) as well as phosphatase inhibitor cocktails (Sigma). Following centrifugation at 14,000 g for 15 min, the supernatant was used for Western blot analysis. In all analyses, protein concentration was determined by the Bio-Rad Protein Assay kit (Bio-Rad). Approximately 25-50 μg of protein was separated by polyacrylamide gel electrophoresis and was transferred to PVDF membrane (Bio-Rad). Blocking was done with 5% low fat milk powder for 1 hr followed by overnight incubation with primary antibody (dilution 1:1000): anti-CD44 (Cell Signaling), anti-EpCAM (Cell Signaling), anti-LGR5 (Origene), anti-CD133 ((Miltenyi Biotec), anti-CXCR4 (Abeam), anti-OCT4 (Cell Signaling), anti-BMI-1 (Millipore), anti-c-MYC (Millipore) and anti-CK20 (Abeam). This was followed by incubation with appropriate secondary antibody and protein bands were visualized using the enhanced chemiluminescence detection system and imaged with LAS-3000 Imaging System (FUJIFILM). Densitometry was determined by AIDA image analyzer software (Raytest) and results were calculated as relative intensity compared to control. All experiments were performed at least three times.

[3] = test system: CK20; assay: Differentiation assay (CK20 expression) in colonosphere cells; type: cell-based, human; settings: spheroid cells on collagen, 2.5% serum, Western blot and immunocytochemistry
Method: Differentiation Assay. Single cell suspension from mature HT-29 colonosphere pre-treated with vehicle or G2.2 for 24 hours were plated on collagen coated glass cover slips or flasks in the presence of media supplemented with 2.5% FBS containing G2.2 or vehicle. At indicated time points, cells lysate was examined for CK-20 expression with western-blot as above. Alternatively, cells were fixed with 4% paraformaldehyde for 20 minutes at room temperature, permeabilized for 5 min in 0.5% Triton X-100 solution and blocked in PBS containing 1% BSA for one hour prior to incubation with anti-CK-20 antibody (Abeam) for 2 hours. Cells were then washed, incubated for 60 min with Alexa Fluor conjugate secondary antibodies, rinsed with blocking buffer and mounted on slides with DAPI containing ProLong® Gold Antifade Reagent (Invitrogen). Fluorescently labeled cells were examined using a Zeiss LSM700 laser scanning confocal microscope (Zeiss Micro imaging Inc.). Alexa Flour® 555 signals were imaged sequentially at 40× magnification in frame-interlaced mode to eliminate cross talk between channels.

[4] = test system: HCT-116 cells, grown in spheroid condition; assay: Apoptosis assay (annexin V/propidium iodide and acridine orange/ethidium bromide); type: cell-based, human
Method: Apoptosis Assay. Human colon cancer HCT-116 cells, grown in spheroid condition were treated with vehicle or NSGMs for 24 hours. Following which cells were trypsinized and single cells were re-suspended at 10^6 cells/mL in PBS buffer. Two different methods were used to assess apoptosis induction. In the first methods, cells were incubated with propidium iodide and Annexin V-APC (ebioscience) and flow cytometric analyses were performed as above. […] Briefly, a small volume of cell suspension was mounted on a glass slide and incubated with 1 μl of AO/EB solution and mixed gently just prior to microscopy and quantification. At least 500 cells in 10-15 fields were examined in each sample using Nikon ECLIPSE E800M fluorescence microscope using 20× objective. […] The data was expressed as apoptosis index=[([apoptotic cells (NSGMs)/total cells (NSGMs)]/[apoptotic cells (vehicle)/total cells (vehicle)]).

[5] = test system: HT-29 cells; assay: Primary (1°) colonosphere formation assay, HT-29 (Screen 1); type: cell-based, human; settings: steep dose-response profile; read-out: apparent IC50 for primary spheroid inhibition
Method: (§2) Primary (1°) Colonosphere Formation Assay. For primary sphere formation, cells were plated in non-treated, low adhesion, 96 wells plate at the concentration of 100 cells/100 μL/well in stem cell media (SCM) that consisted of DMEM:F12:AA (Gibco), supplemented with 1×B27 (Gibco), 20 ng/mL epidermal growth factor and 10 ng/mL fibroblast growth factor (Sigma). After four hour of incubation, vehicle (control) or NSGM at the desired concentrations were added to each well (at least in triplicates for each sample). On day five, numbers of spheres ranging from […] in diameter were counted using phase contrast microscope and percent inhibition was calculated compared to control.
(§3) In this screen, sulfated NSGMs that inhibit HT-29 growth under spheroid conditions, but not under monolayer conditions, were then assessed for retention of 2° and 3° spheroid growth inhibition profiles in the absence of NSGM. The latter screen is of particular importance as primary spheroid growth although selective for CSCs doses not distinguish between non self-renewing progenitors and self-renewing CSCs. […] These 11 NSGMs belonged to G2, G4, G11 and G12 scaffolds but only four of the six G2 molecules, one of the two G4, four of the seven G11 and two of the five G12 molecules satisfied the first screen.

[6] = test system: Panc-1 (pancreatic) cancer cell lines; assay: Primary spheroid formation assay, Panc-1; type: cell-based, human
Method: as §2

[7] = test system: HCT-116; assay: Primary spheroid formation assay, HCT-116; type: cell-based, human; settings: HCT-116 (p53 null)
Method: as §2, §3

[8] = test system: HT-29 colon cancer cells; assay: Cell cycle distribution in spheroid cells; type: cell-based, human; settings: 24 hours, 100 μM, vs vehicle
[9] = test system: HCT116 cells; assay: Mice tumor xenograft model, intratumoral G2.2; type: in vivo, NOD-SCID mice
Method: One million HCT116 cells were washed with PBS and injected subcutaneously (0.2 mL cell suspension in 50% matrigel) into 6-week-old NOD-SCID mice (Taconic Incorporation, Germantown, N.Y.) on both flanks. Once the tumors become palpable, 16 mice were randomized into two groups. In the treatment group, animals received direct intratumoral (IT) injection of appx 1.125 mg of G2.2 dissolved in 75 μl PBS (pH=7.4) solution three times a week for three weeks (a total of 10 mg of G2.2 over three weeks). Control animals were also received IT injection with 75 μl of vehicle alone (PBS) on the same schedule. Tumor size was measured three times a week using caliber and tumor volume was calculated as previously described. Mice were also weighed three times a week. All the animals were sacrificed within 1 week after completion of therapy using approved method of CO2 asphyxiation. Tumor xenografts were minced with scalpels blade into small pieces and then digested in DMEM/F12 medium containing 300 units/mL collagenase (Stem Cell Technologies) and 100 units/mL hyaluronidase (Stem Cell Technologies) for 1 hr at 37° C. Cells were then washed and re-suspended to a final concentration of 10^6 cell/mL in DMEM/2% FBS. Cell suspensions from the tumor samples were incubated with PE conjugated LGR5 or CXCR4 antibody for 30 minutes and washed two times with PBS buffer and then analyzed (FIG. 18A-B). […] However, none of these values were statistically significant (p>0.1).

[10] = test system: LGR5; assay: Flow cytometry analysis of CSC markers in HT-29 spheroids; type: cell-based, human; settings: 100 μM, vs vehicle-treated controls
Method: Flow Cytometry Analysis. Human colon cancer HT-29 cells, grown in spheroid or monolayer condition were treated with vehicle or NSGMs for 24 hours, were trypsinized and single cells were re-suspended at 10^6 cells/mL in PBS buffer. Cells were incubated with fluorophore conjugated antibody for 30 minutes at 4° C. and washed once with PBS buffer prior to analysis. Following antibody and dilution were used: LGR5-PE) (Dilution 1:50, Origene), DCLK1 (Dilution 1:33, Abeam). Cell sorting was performed using FACSAria™ II High-Speed Cell Sorter (BD Biosciences) and data were analyzed with FCS Express 4 Flow Cytometry software (De-Novo Software).

[11] = test system: self-renewal factors OCT4, BMI-1, c-MYC; assay: Western blot of self-renewal factors in spheroids; type: cell-based, human; settings: 100 μM, HT-29
Method: as §1

[12] = Animal weight in mice tumor xenograft model; type: in vivo, NOD-SCID mice; settings: intratumoral, appx 1.125 mg three times a week for three weeks
Method: One million HCT116 cells were washed with PBS and injected subcutaneously (0.2 mL cell suspension in 50% matrigel) into 6-week-old NOD-SCID mice (Taconic Incorporation, Germantown, N.Y.) on both flanks. Once the tumors become palpable, 16 mice were randomized into two groups. In the treatment group, animals received direct intratumoral (IT) injection of appx 1.125 mg of G2.2 dissolved in 75 μl PBS (pH=7.4) solution three times a week for three weeks (a total of 10 mg of G2.2 over three weeks). Control animals were also received IT injection with 75 μl of vehicle alone (PBS) on the same schedule. Tumor size was measured three times a week using caliber and tumor volume was calculated as previously described. Mice were also weighed three times a week. All the animals were sacrificed within 1 week after completion of therapy using approved method of CO2 asphyxiation. Tumor xenografts were minced with scalpels blade into small pieces and then digested in DMEM/F12 medium containing 300 units/mL collagenase (Stem Cell Technologies) and 100 units/mL hyaluronidase (Stem Cell Technologies) for 1 hr at 37° C. Cells were then washed and re-suspended to a final concentration of 10^6 cell/mL in DMEM/2% FBS. Cell suspensions from the tumor samples were incubated with PE conjugated LGR5 or CXCR4 antibody for 30 minutes and washed two times with PBS buffer and then analyzed (FIG. 18A-B). […]

[13] = test system: HT-29 cell line; assay: MTT cell proliferation assay, monolayer growth; type: cell-based, human; settings: monolayer conditions
Method: Cell Proliferation Assay. Cell proliferation was evaluated by (3-(4,5-dimethylthiazol-2-yl)-2,5-diphenyltetrazolium bromide) MTT cell proliferation assay. For HT-29 cell line approximately 2.5×10^3 cells/100 μL/well were plated in 96-well tissue culture treated plate. After overnight incubation at 37° C. vehicle (control) or NSGM was added at the desired concentration and the cells were further incubated for 60-72 h. At the end of the incubation, 10 μL of 5 mg/mL MTT solution (Sigma) made in phosphate buffered saline (PBS) (Gibco) was added to each well and incubated for minimum of 2 to 3 hr until crystals formation was observed. Following this, 150 μL of 4 mM HCl (Sigma) in isopropanol solution was added drop wise to each well and the mixture was triturated until the crystals dissolve completely. Finally, the plate was placed on the spectrophotometer reader and read at 590 nm and growth inhibition was calculated as percent of control.

[14] = test system: HT-29 cells; assay: Secondary (2°) and tertiary (3°) colonosphere assay, HT-29 (Screen 2); type: cell-based, human; settings: no NSGM in 2° and 3° growth assays
Method: Secondary (2°) and Tertiary (3°) Colonosphere Assay. For secondary colonospheres, the 96-well plate of primary spheres was centrifuged at speed of 1000 rpm for 1 min and the supernatant was removed. Spheres that settled at the base of the plate were trypsinized with 20 μL/well and single cell suspension was prepared using vigorous mechanical dissociation. The numbers of viable cell were counted with 1:5 ratio of cell:trypan blue and then re-plated at 100 cells/[…] in SCM media in a low adhesion plate. No further treatment with NSGMs was performed. Numbers of spheres were counted as above on day 5. The same method was repeated for tertiary spheres.
The 11 sulfated NSGMs were then studied for their effect on 2° and 3° sphere formation (HT-29 and HCT-116) in Screen 2. By design, this screen reflects a test of true self-renewability of CSCs.^2,3 Single cell suspension obtained from primary spheres formed above was then cultured in the absence of NSGM.

[15] = compared to vehicle treated xenografts, flow cytometry

pIC50 [5]: ~4.24 | overall animal weight [12]: no effect
SMILES: O=c1c(OS(=O)(=O)[O-])c(-c2ccc(OS(=O)(=O)[O-])c(OS(=O)(=O)[O-])c2)oc2cc(OS(=O)(=O)[O-])cc(OCCCOc3cc(OS(=O)(=O)[O-])cc4oc(-c5ccc(OS(=O)(=O)[O-])c(OS(=O)(=O)[O-])c5)c(OS(=O)(=O)[O-])c(=O)c34)c12.[Na+].[Na+].[Na+].[Na+].[Na+].[Na+].[Na+].[Na+] [G2.2]
mRNA levels of several CSC markers [1]: marked decrease | protein expression of CSC markers (LGR5, CXCR4) ([2]; 6 hours): minimal change | protein expression of CSC markers (LGR5, CXCR4) ([2]; 24 hours): significant decrease | reduction of expression of CSC markers (CD44, CD133, EpCAM, LGR5, CXCR-4) [2]: 25-55% | CK20 expression (colonic differentiation marker) [3]: modest induction | induction of apoptosis in spheroid cells ([4]; annexin V labeling and acridine orange/ethidium bromide staining, 100 μM, 24 hours, vs vehicle): 2 to 3 fold | induction of apoptosis in CSC-poor monolayer counterparts ([4]; monolayer cells): did not induce apoptosis | inhibition of spheroid formation, potency relative to HT-29 [6]: essentially identical potency | inhibition of spheroid formation, potency relative to HT-29 [7]: essentially identical potency | proportion of spheroid cells in G1 phase (cell cycle progression) [8]: small increase | reduction in tumor volume ([9]; between days 5-19, intratumoral, not statistically significant (p>0.1)): 20-42% | attenuation of CXCR4 positive cells in xenografts [9, 15]: ~75% | attenuation of LGR5 positive cells in xenografts [9, 15]: ~78% | reduction in LGR5 (hi) cells [10]: 39% | BMI-1 expression [11]: significant inhibition | OCT-4 levels [11]: little effect | c-MYC expression [11]: significant inhibition | inhibition of monolayer growth (bulk tumor cells) [13]: minimal effect

SMILES: O=c1c(OS(=O)(=O)[O-])c(-c2ccc(OS(=O)(=O)[O-])c(OS(=O)(=O)[O-])c2)oc2cc(OS(=O)(=O)[O-])cc(OCCOc3cc(-c4oc5cc(OS(=O)(=O)[O-])cc(OCCOc6cc(OS(=O)(=O)[O-])cc7oc(-c8ccc(OS(=O)(=O)[O-])c(OS(=O)(=O)[O-])c8)c(OS(=O)(=O)[O-])c(=O)c67)c5c(=O)c4OS(=O)(=O)[O-])ccc3OS(=O)(=O)[O-])c12.[Na+].[Na+].[Na+].[Na+].[Na+].[Na+].[Na+].[Na+].[Na+].[Na+].[Na+] [G4.1]
Screen 2 outcome (2° and 3° spheroid growth inhibition) [14]: completely failed | reduction of expression of CSC markers (CD44, CD133, EpCAM, LGR5, CXCR-4) [2]: no effect
